Source: patent US20260165350A1, “FLAVONOID COMPOSITIONS AND USES THEREOF” (FIRMENICH SA, priority 2022, published 2026)
One block for each compound: values may come before it.

Assays:
Format in all cases: physicochemical
[1] = Solubility at 25° C. from transparency during a heating ramp (Crystalline PV), exponential fit
Description: Naringenin was mixed with different solvents and mixtures of solvent and transferred to an 8-mL vial equipped with an overhead stirrer. The sample was placed in a Crystalline PV instrument (Technobis, The Netherlands). A heating step was carried with a heating ramp of +0.1° C./min under mechanical stirring, and the samples were monitored by following transparency via a LED light beam that passes through the vial. Full (100%) transparency is attained when Naringenin is completely dissolved in the solvent. On the other hand, when the measured values of transparency are below 100% the dissolution process is still incomplete. Once the signal has attained 100% transparency, the dissolution process was complete and the respective temperature was taken as the solubilization temperature.
For each solvent or mixture of solvent, the measured solubility as a function of temperature has been fitted to an exponential function. The solubility at 25° C. was obtained by extrapolation or interpolation of this exponential function.
The same method as described in Example 3 was used to determine the solubility of Phloretin at 25° C.

[2] = Stability of naringenin solutions stored three months at room temperature; set-up: key: X: dissolved; *: reprecipitated
Source text: (§1) Naringenin was mixed with different solvents and heated until the product has completely dissolved. Subsequently, the samples were left to cool down to room temperature and stored over a period of three months.

[3] = Solvent comparison: visual observation of naringenin dissolution, reassessed after three months; set-up: key: X: Dissolved; ◯: Partially dissolved, with sediments observed; #: Not dissolved; *: reprecipitated
Description: Several solvents and solvent blends were prepared after which a measured amount of naringenin was added and mechanically agitated. Each mixture was then visually observed for dissolution. All samples were stored at room temperature protected from direct light and were reassessed for stability after a period of three months.

[4] = Stability of naringenin solutions stored three months at room temperature; set-up: key: X: Dissolved; ◯: Partially dissolved, with sediments observed; #: Not dissolved; *: reprecipitated; conditions: n-Propyl alcohol
Source text: as §1

[5] = (L)-Carvone 50% + Isopropyl alcohol 50%
[6] = n-Propyl alcohol, 4% of Naringenin
[7] = n-Propyl alcohol, 5% of Naringenin
[8] = n-Propyl alcohol, 6% of Naringenin
[9] = (D)-Carvone, naringenin 15% (w/w)
[10] = (L)-Carvone + isopropyl alcohol (50:50), naringenin 10% (w/w)
[11] = (L)-Carvone, naringenin 10% (w/w)
[12] = Carvone + isopropyl alcohol + benzyl alcohol (20:40:40), naringenin 10% (w/w)
[13] = Ethanol + benzyl alcohol (50:50), naringenin 10% (w/w)
[14] = Ethyl lactate + Glycerol 20%, naringenin 10% (w/w)
[15] = Ethyl lactate, naringenin 10% (w/w)
[16] = Isopropyl alcohol + benzyl alcohol (50:50), naringenin 10% (w/w)
[17] = Isopropyl alcohol, naringenin 10% (w/w)
[18] = Lactic acid, naringenin 5% (w/w)
[19] = Mint Spicata (60% Carvone), naringenin 6% (w/w)
[20] = Mint Spicata China (80% Carvone) + isopropyl alcohol (60:40), naringenin 15% (w/w)
[21] = Mint Spicata China (80% Carvone), naringenin 10% (w/w)
[22] = Propanol NAT, naringenin 6% (w/w)
[23] = Propylene glycol, naringenin 10% (w/w)

- Solubility of Naringenin at 25° C. (%) ([1]; (D)-Carvone 100%): 8.5%
- Solubility of Naringenin at 25° C. (%) ([1]; (L)-Carvone 30% + n-Propyl alcohol 70%): 11.7%
- Solubility of Naringenin at 25° C. (%) ([1]; (L)-Carvone 50% + Ethanol 50%): 18.7%
- Solubility of Naringenin at 25° C. (%) [1, 5]: 16.6%
- Solubility of Naringenin at 25° C. (%) ([1]; (L)-Carvone 50% + Propylene glycol 50%): 13.0%
- Solubility of Naringenin at 25° C. (%) ([1]; (L)-Carvone 50% + n-Propyl alcohol 50%): 14.9%
- Solubility of Naringenin at 25° C. (%) ([1]; (L)-Carvone 70% + n-Propyl alcohol 30%): 15.7%
- Solubility of Naringenin at 25° C. (%) ([1]; (L)-Carvone 90% + n-Propyl alcohol 10%): 13.0%
- Solubility of Naringenin at 25° C. (%) ([1]; (L)-Carvone 100%): 8.5%
- Solubility of Naringenin at 25° C. (%) ([1]; Benzyl alcohol 100%): 3.9%
- Solubility of Naringenin at 25° C. (%) ([1]; Ethyl lactate 100%): 5.3%
- Solubility of Naringenin at 25° C. (%) ([1]; Eucalyptol 100%): 1.2%
- Solubility of Naringenin at 25° C. (%) ([1]; Glycerol 100%): 0.1%
- Solubility of Naringenin at 25° C. (%) ([1]; Isopropyl alcohol 50% + Benzyl alcohol 50%): 6.9%
- Solubility of Naringenin at 25° C. (%) ([1]; Isopropyl alcohol 100%): 5.2%
- Solubility of Naringenin at 25° C. (%) ([1]; Limonene 100%): <0.1%
- Solubility of Naringenin at 25° C. (%) ([1]; Mint Spicata (80% carvone) 50% + Propylene glycol 50%): 12.0%
- Solubility of Naringenin at 25° C. (%) ([1]; Mint Spicata (80% carvone) 60% + Isopropyl alcohol 40%): 15.4%
- Solubility of Naringenin at 25° C. (%) ([1]; Mint Spicata (80% carvone) 100%): 7.5%
- Solubility of Naringenin at 25° C. (%) ([1]; Neobee 100%): 0.1%
- Solubility of Naringenin at 25° C. (%) ([1]; Propylene glycol 100%): 3.6%
- Solubility of Naringenin at 25° C. (%) ([1]; Triethyl citrate 100%): 1.7%
- Solubility of Naringenin at 25° C. (%) ([1]; n-Propyl alcohol 100%): 4.2%
- Solution state (after three months at RT) ([2]; (L)-Carvone, 4% of Naringenin): X
- Solution state (right after heating) ([2]; (L)-Carvone, 4% of Naringenin): X
- Solution state (after three months at RT) ([2]; (L)-Carvone, 5% of Naringenin): X
- Solution state (right after heating) ([2]; (L)-Carvone, 5% of Naringenin): X
- Solution state (after three months at RT) ([2]; (L)-Carvone, 6% of Naringenin): X
- Solution state (right after heating) ([2]; (L)-Carvone, 6% of Naringenin): X
- Solution state (after three months at RT) ([2]; (L)-Carvone, 8% of Naringenin): X
- Solution state (right after heating) ([2]; (L)-Carvone, 8% of Naringenin): X
- Solution state (after three months at RT) ([2]; (L)-Carvone, 10% of Naringenin): X
- Solution state (right after heating) ([2]; (L)-Carvone, 10% of Naringenin): X
- Solution state (after three months at RT) ([2]; (L)-Carvone, 12% of Naringenin): X
- Solution state (right after heating) ([2]; (L)-Carvone, 12% of Naringenin): X
- Solution state (after three months at RT) [2, 6]: X
- Solution state (right after heating) [2, 6]: X
- Solution state (after three months at RT) [2, 7]: X
- Solution state (right after heating) [2, 7]: X
- Solution state (after three months at RT) [2, 8]: X
- Solution state (right after heating) [2, 8]: X
- Solution state (right after heating) ([2]; n-Propyl alcohol, 8% of Naringenin): X
- Solution state (right after heating) ([2]; n-Propyl alcohol, 10% of Naringenin): X
- Solution state (right after heating) ([2]; n-Propyl alcohol, 12% of Naringenin): X
- Observation [3, 9]: X
- Observation (after 3 months at RT) [3, 9]: X
- Observation [3, 10]: X
- Observation (after 3 months at RT) [3, 10]: X
- Observation [3, 11]: X
- Observation (after 3 months at RT) [3, 11]: X
- Observation [3, 12]: X
- Observation (after 3 months at RT) [3, 12]: X
- Observation [3, 13]: X
- Observation (after 3 months at RT) [3, 13]: *
- Observation [3, 14]: ◯
- Observation (after 3 months at RT) [3, 14]: ◯
- Observation [3, 15]: #
- Observation (after 3 months at RT) [3, 15]: #
- Observation ([3]; Glycerol, naringenin 5% (w/w)): #
- Observation (after 3 months at RT) ([3]; Glycerol, naringenin 5% (w/w)): #
- Observation [3, 16]: X
- Observation (after 3 months at RT) [3, 16]: *
- Observation [3, 17]: #
- Observation (after 3 months at RT) [3, 17]: #
- Observation [3, 18]: #
- Observation (after 3 months at RT) [3, 18]: #
- Observation [3, 19]: X
- Observation (after 3 months at RT) [3, 19]: X
- Observation [3, 20]: X
- Observation (after 3 months at RT) [3, 20]: X
- Observation [3, 21]: X
- Observation (after 3 months at RT) [3, 21]: X
- Observation [3, 22]: ◯
- Observation (after 3 months at RT) [3, 22]: ◯
- Observation [3, 23]: #
- Observation (after 3 months at RT) [3, 23]: #
- Solution state (after three months at RT) ([4]; 8% of Naringenin): *
- Solution state (after three months at RT) ([4]; 10% of Naringenin): *
- Solution state (after three months at RT) ([4]; 12% of Naringenin): *
Compound: O=C1C[C@@H](c2ccc(O)cc2)Oc2cc(O)cc(O)c21 [Naringenin, naringenin]

- Solubility of Phloretin at 25° C. (%) ([1]; (L)-Carvone 50% + Ethanol 50%): 21.9%
- Solubility of Phloretin at 25° C. (%) [1, 5]: 22.8%
- Solubility of Phloretin at 25° C. (%) ([1]; (L)-Carvone 100%): 7.7%
- Solubility of Phloretin at 25° C. (%) ([1]; Ethanol 100%): 15.9%
- Solubility of Phloretin at 25° C. (%) ([1]; Isopropyl alcohol 100%): 12.7%
- Solubility of Phloretin at 25° C. (%) ([1]; Propylene glycol 100%): 8.9%
Compound: O=C(CCc1ccc(O)cc1)c1c(O)cc(O)cc1O [Phloretin, phloretin]
